Laboratory results: article PMC10518257 (Nature Cancer, 2023)
Where “and” joins values, the source holds several entries; their conditions need not be identical. Identical values can stand only once.

Tests used:
[1] = target: T1, panel of 255 (vepafestinib) or 256 (all other inhibitors) recombinant kinases (Homo sapiens, UniProt P16234); test: Kinase selectivity profiling at a single concentration (Carna Biosciences); format: biochemical; conditions: 17 nM
T1 construct: purchased Carna Biosciences

[2] = target: panel of 255 (vepafestinib) or 256 (all other inhibitors) recombinant kinases; test: as above; format: biochemical; conditions: 17 nM, 256 kinases
[3] = target: T2, panel of 255 (vepafestinib) or 256 (all other inhibitors) recombinant kinases (Homo sapiens, UniProt P35916); test: as above; format: biochemical; conditions: 17 nM
T2 construct: purchased Carna Biosciences

[4] = test system: Ba/F3 KIF5B–RET^G810R allograft tumors; test: Subcutaneous allograft efficacy study; format: in vivo, BALB/c nude mice; conditions: in mm³ (unit assumed);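 further: mean tumor volume per dosing group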
LUAD-0077AS1 PDX = test: PDX efficacy study; format: in vivo, NSG mice; parameters: Tumor volume: unit not given here; conditions: for Area Under Curve Mean: Fig. 6b LUAD-0077AS1 tumor growth; for Change in tumor volume (block without heading, Fig. 6b) / Tumor volume: LUAD-0077AS1, individual animals
ECLC5B cells = test: Growth inhibition (alamarBlue, 96 h); format: cell-based, human; conditions: for raw viability signal (Source Data Fig. 3b-c): ECLC5B, replicates
[5] = test system: Ba/F3 cells expressing KIF5B–RET^G810R; test: Growth inhibition assay in Ba/F3 cells (CellTiter-Glo, 72 h); format: cell-based; conditions: replicate Sets 1-3
[6] = test system: Ba/F3 cells expressing KIF5B–RET^WT; test: as above; format: cell-based; conditions: replicate sets
[7] = test system: Ba/F3 cells expressing KIF5B–RET^V804M; test: as above; format: cell-based; conditions: Ba/3-KIF5B-RET-V804M; replicate sets

T1 sequence (P16234 24-1089): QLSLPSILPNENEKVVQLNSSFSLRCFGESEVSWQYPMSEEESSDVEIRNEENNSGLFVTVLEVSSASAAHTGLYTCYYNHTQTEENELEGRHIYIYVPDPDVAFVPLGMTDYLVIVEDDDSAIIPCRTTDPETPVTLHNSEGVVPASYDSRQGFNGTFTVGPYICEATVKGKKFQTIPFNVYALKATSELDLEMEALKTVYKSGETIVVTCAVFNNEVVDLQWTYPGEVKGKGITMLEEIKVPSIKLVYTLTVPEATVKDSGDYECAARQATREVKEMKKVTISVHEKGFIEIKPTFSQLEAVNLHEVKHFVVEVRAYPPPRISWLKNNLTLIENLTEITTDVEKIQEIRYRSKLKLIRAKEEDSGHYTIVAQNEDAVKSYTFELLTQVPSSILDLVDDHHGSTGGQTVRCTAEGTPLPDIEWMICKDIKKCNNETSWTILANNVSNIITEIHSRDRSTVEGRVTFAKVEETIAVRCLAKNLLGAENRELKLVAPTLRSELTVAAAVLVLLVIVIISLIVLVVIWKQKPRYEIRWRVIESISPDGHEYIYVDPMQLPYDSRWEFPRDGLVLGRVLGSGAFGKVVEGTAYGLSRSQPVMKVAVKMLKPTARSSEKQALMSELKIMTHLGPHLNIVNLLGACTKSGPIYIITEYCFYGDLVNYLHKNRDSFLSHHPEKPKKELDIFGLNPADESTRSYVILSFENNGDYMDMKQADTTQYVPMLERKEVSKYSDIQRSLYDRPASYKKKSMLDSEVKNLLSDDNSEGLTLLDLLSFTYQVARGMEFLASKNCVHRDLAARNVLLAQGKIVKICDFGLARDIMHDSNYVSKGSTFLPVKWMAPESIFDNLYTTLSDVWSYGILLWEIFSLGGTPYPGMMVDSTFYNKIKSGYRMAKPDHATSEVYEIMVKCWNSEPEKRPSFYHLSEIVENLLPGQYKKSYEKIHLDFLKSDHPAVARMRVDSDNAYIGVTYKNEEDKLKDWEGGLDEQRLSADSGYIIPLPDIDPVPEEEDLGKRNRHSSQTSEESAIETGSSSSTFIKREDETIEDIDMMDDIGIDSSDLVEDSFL
T2 sequence (P35916 25-1363): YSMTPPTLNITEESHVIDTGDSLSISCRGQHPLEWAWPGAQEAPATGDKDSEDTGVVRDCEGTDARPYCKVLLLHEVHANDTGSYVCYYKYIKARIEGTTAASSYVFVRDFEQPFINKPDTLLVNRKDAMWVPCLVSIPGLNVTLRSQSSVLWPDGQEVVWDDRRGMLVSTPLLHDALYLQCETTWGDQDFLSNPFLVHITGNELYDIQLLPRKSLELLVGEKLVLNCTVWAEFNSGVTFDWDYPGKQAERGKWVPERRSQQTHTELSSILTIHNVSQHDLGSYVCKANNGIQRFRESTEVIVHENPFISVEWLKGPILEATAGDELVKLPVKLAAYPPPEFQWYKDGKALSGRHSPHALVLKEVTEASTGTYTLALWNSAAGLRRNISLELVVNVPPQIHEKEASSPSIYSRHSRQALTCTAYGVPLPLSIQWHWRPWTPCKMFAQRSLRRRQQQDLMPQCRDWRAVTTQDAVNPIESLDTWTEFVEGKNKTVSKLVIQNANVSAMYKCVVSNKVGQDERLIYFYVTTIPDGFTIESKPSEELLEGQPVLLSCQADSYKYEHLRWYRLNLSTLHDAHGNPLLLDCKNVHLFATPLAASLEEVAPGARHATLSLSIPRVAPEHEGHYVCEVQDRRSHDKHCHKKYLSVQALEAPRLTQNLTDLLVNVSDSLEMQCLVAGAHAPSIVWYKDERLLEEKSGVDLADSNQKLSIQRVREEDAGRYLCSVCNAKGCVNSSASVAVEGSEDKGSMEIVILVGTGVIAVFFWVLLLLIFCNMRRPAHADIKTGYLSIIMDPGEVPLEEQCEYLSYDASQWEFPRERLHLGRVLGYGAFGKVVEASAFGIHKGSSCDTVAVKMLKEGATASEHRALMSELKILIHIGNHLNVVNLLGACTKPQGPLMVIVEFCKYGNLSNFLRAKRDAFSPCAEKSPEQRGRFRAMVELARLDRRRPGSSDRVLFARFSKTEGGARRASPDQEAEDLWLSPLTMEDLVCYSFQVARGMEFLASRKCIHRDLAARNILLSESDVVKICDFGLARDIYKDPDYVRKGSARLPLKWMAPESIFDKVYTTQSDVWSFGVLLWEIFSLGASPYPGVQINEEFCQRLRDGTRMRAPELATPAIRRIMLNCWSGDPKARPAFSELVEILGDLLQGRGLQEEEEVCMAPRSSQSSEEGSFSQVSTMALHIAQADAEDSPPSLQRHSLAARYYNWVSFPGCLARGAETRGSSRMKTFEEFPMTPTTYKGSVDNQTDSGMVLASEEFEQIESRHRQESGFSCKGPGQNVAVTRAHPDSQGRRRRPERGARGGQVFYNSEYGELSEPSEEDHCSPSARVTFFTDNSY

Which results are given for `CO[C@]1(C(=O)N[C@@H](C)c2ccc(-n3cc(F)cn3)nc2)CC[C@H](c2nc(C)cc(Nc3cc(C)[nH]n3)n2)CC1` [Pralsetinib]?
% Inhibiton PDGFRα [1]: 57.1%; kinases inhibited by >50% [2]: 11; % Inhibiton FLT4 [3]: 74%; Tumor Volume Mean ([4]; Fig. 7c Ba/F3-KIF5B::RET G810R, pralsetinib 10 mg/kg BID, day 1): 154.09; Tumor Volume Mean ([4]; Fig. 7c Ba/F3-KIF5B::RET G810R, pralsetinib 10 mg/kg BID, day 4): 213.90; Tumor Volume Mean ([4]; Fig. 7c Ba/F3-KIF5B::RET G810R, pralsetinib 10 mg/kg BID, day 8): 315.85; Tumor Volume Mean ([4]; Fig. 7c Ba/F3-KIF5B::RET G810R, pralsetinib 10 mg/kg BID, day 11): 472.80; Tumor Volume Mean ([4]; Fig. 7c Ba/F3-KIF5B::RET G810R, pralsetinib 10 mg/kg BID, day 15): 1059.21; Tumor Volume Mean ([4]; Fig. 7d Ba/F3-KIF5B::RET G810R, pralsetinib 30 mg/kg BID, day 1): 163.0; Tumor Volume Mean ([4]; Fig. 7d Ba/F3-KIF5B::RET G810R, pralsetinib 30 mg/kg BID, day 4): 312.7; Tumor Volume Mean ([4]; Fig. 7d Ba/F3-KIF5B::RET G810R, pralsetinib 30 mg/kg BID, day 8): 411.9; Tumor Volume Mean ([4]; Fig. 7d Ba/F3-KIF5B::RET G810R, pralsetinib 30 mg/kg BID, day 11): 562.8; Tumor Volume Mean ([4]; Fig. 7d Ba/F3-KIF5B::RET G810R, pralsetinib 30 mg/kg BID, day 15): 747.9; Area Under Curve Mean (LUAD-0077AS1 PDX; 15 mg/kg BID): 189.7; Area Under Curve Mean (LUAD-0077AS1 PDX; 30 mg/kg BID): -512.3; Change in tumor volume (block without heading, Fig. 6b) (LUAD-0077AS1 PDX; 15 mg/kg BID): 31.8218 and 17.159 and 11.071 and 13.2706 and -8.805; Tumor volume (LUAD-0077AS1 PDX; 15 mg/kg BID, treatment day 0): 88.7 (3×) and 87.11 (2×); Tumor volume (LUAD-0077AS1 PDX; 15 mg/kg BID, treatment day 4): 88.7 (4×) and 87.11; Tumor volume (LUAD-0077AS1 PDX; 15 mg/kg BID, treatment day 7): 88.7 (2×) and 80.89 and 77.87 and 90.28; Tumor volume (LUAD-0077AS1 PDX; 15 mg/kg BID, treatment day 11): 66.76 and 80.89 (2×) and 42.6 and 72.18; Tumor volume (LUAD-0077AS1 PDX; 15 mg/kg BID, treatment day 14): 70.82 and 80.89 and 64.12 and 83.97 and 73.54; Tumor volume (LUAD-0077AS1 PDX; 15 mg/kg BID, treatment day 19): 80.89 and 98.67 and 103.92 and 114.83 and 98.52; Tumor volume (LUAD-0077AS1 PDX; 15 mg/kg BID, treatment day 22): 150.13 and 109.36 and 130.83 and 152.27 and 164.53; Tumor volume (LUAD-0077AS1 PDX; 15 mg/kg BID, treatment day 25): 166.88 and 122.74 and 141.32 and 205.88 and 187.29; Change in tumor volume (block without heading, Fig. 6b) (LUAD-0077AS1 PDX; 30 mg/kg BID): -26.3021 and -30.7542 and -32.7343 and -33.6127 and -36.9233; Tumor volume (LUAD-0077AS1 PDX; 30 mg/kg BID, treatment day 0): 88.7 and 87.11 (2×) and 82.36 (2×); Tumor volume (LUAD-0077AS1 PDX; 30 mg/kg BID, treatment day 4): 88.7 (2×) and 87.11 and 82.36 and 83.97; Tumor volume (LUAD-0077AS1 PDX; 30 mg/kg BID, treatment day 7): 72.18 and 70.82 and 68.07 and 66.76 and 74.9; Tumor volume (LUAD-0077AS1 PDX; 30 mg/kg BID, treatment day 11): 57.83 (2×) and 60.32 (2×) and 64.12; Tumor volume (LUAD-0077AS1 PDX; 30 mg/kg BID, treatment day 14): 52.07 and 53.01 (2×) and 50.68 and 49.83; Tumor volume (LUAD-0077AS1 PDX; 30 mg/kg BID, treatment day 19): 65.37 and 57.83 and 55.4 and 60.32 and 51.95; Tumor volume (LUAD-0077AS1 PDX; 30 mg/kg BID, treatment day 22): 65.37 and 48.41 and 53.01 and 51.95 (2×); Tumor volume (LUAD-0077AS1 PDX; 30 mg/kg BID, treatment day 25): 65.37 and 83.97 and 60.32 and 53.01 and 55.4; raw viability signal (Source Data Fig. 3b-c) (ECLC5B cells; 0.01 nM): 11159.3 and 6334.79 and 21867.4; raw viability signal (Source Data Fig. 3b-c) (ECLC5B cells; 0.1 nM): 11498.4 and 7246.25 and 22158.4; raw viability signal (Source Data Fig. 3b-c) (ECLC5B cells; 1 nM): 11273.5 and 6357.98 and 19717.2; raw viability signal (Source Data Fig. 3b-c) (ECLC5B cells; 10 nM): 5160.26 and 1378.73 and 8133.57; raw viability signal (Source Data Fig. 3b-c) (ECLC5B cells; 100 nM): 2920.41 and 1318.47 and 4448.62; raw viability signal (Source Data Fig. 3b-c) (ECLC5B cells; 1000 nM): 1849.04 and 1272.17 and 3256.96; raw viability signal (Source Data Fig. 3b-c) (ECLC5B cells; 10000 nM): 1438.61 and 1223.5 and 2843.35; IC50 (ECLC5B cells; Homo sapiens, 96 h, read-out: IC50 for Inhibition of Growth (95% CI)): 6 nM; GI50 ([5]; Ba/3-KIF5B-RET-G810R): 1420 nM and 1200 nM; GI50 ([5]; Mus musculus, BaF3, Ba/3-KIF5B-RET-G810R): 816 nM; GI50 ([6]; Ba/3-KIF5B-RET): 7.33 nM and 4.09 nM; GI50 ([6]; Mus musculus, BaF3, Ba/3-KIF5B-RET): 8.11 nM; GI50 [7]: 7.93 nM and 8.94 nM
